In PubChem BioAssay (NCI):
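All cell lines were grown in 96-well plates and treated with compound for 48 hours. At the TGI there is no net growth.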

Columns and labels:
Experiment in all cases: NCI-60 cell line screen, 48 h
786-0 renal = system: 786-0 renal
CAKI-1 renal = system: CAKI-1 renal
CCRF-CEM leukemia = system: CCRF-CEM leukemia
EKVX NSCLC = system: EKVX NSCLC
HCC-2998 colon = system: HCC-2998 colon
HOP-62 NSCLC = system: HOP-62 NSCLC
IGROV1 ovarian = system: IGROV1 ovarian
MALME-3M melanoma = system: MALME-3M melanoma
OVCAR-5 ovarian = system: OVCAR-5 ovarian
RPMI-8226 leukemia = system: RPMI-8226 leukemia
SF-268 CNS = system: SF-268 CNS
SN12C renal = system: SN12C renal
SNB-75 CNS = system: SNB-75 CNS
MCF7 breast = system: MCF7 breast
MDA-MB-231 breast = system: MDA-MB-231 breast
RXF 393 renal = system: RXF 393 renal
SR leukemia = system: SR leukemia
BT-549 breast = system: BT-549 breast
NCI-H522 lung = system: NCI-H522 lung

SMILES	TGI (786-0 renal) [µM]	TGI (CAKI-1 renal) [µM]	TGI (CCRF-CEM leukemia) [µM]	TGI (EKVX NSCLC) [µM]	TGI (HCC-2998 colon) [µM]	TGI (HOP-62 NSCLC) [µM]	TGI (IGROV1 ovarian) [µM]	TGI (MALME-3M melanoma) [µM]	TGI (OVCAR-5 ovarian) [µM]	TGI (RPMI-8226 leukemia) [µM]	TGI (SF-268 CNS) [µM]	TGI (SN12C renal) [µM]	TGI (SNB-75 CNS) [µM]	TGI (MCF7 breast) [µM]	TGI (MDA-MB-231 breast) [µM]	TGI (RXF 393 renal) [µM]	TGI (SR leukemia) [µM]	TGI (BT-549 breast) [µM]	TGI (NCI-H522 lung) [µM]
Cn1nc2ccccc2cc1=O	> 100	> 100	> 100	> 100	> 100	> 100	> 100	> 100	> 100	> 100	> 100	> 100	> 100	–	–	–	–	–	–
CC1(O)Oc2ccc3ccccc3c2C=C1C(N)=O (stereo not given)	> 100	> 100	> 100	> 100	> 100	> 100	> 100	–	–	> 100	> 100	–	> 100	> 100	93.8	> 100	> 100	–	–
CCN(CC)C(=S)SS(=O)(=O)c1ccc(NC(C)=O)cc1	36.5	41.8	–	> 100	> 100	42	–	31.6	60.5	44	> 70.2	39.1	97.2	–	36.4	33	> 51.6	> 78.4	0.84
CC(C)C1COC(c2ccc3ccccc3c2-c2c(O[Si](C)(C)C(C)(C)C)ccc3ccccc23)=N1 (stereo not given)	32.4	45.2	35.5	35.3	28.9	33.4	35.4	32.9	32.6	33.2	34.7	33.2	32.5	–	–	34.7	–	–	29.8
CN(C)c1nc(=NCc2cccnc2)ss1	> 10	> 10	> 10	> 10	–	> 10	> 10	> 10	–	> 10	> 10	> 10	> 10	–	> 10	> 10	> 10	–	–
c1cc(NC2=NCCO2)c2c(c1)OCO2	> 100	> 100	> 100	> 100	> 100	> 100	> 100	> 100	> 100	> 100	> 100	> 100	–	> 100	> 100	> 100	> 100	–	> 100
COC(=O)N/N=C(/Cc1occc(=O)c1O)C(=O)Nc1ccc([N+](=O)[O-])cc1[N+](=O)[O-]	> 100	> 100	> 100	> 100	> 100	> 100	> 100	> 100	> 100	> 100	> 100	> 100	> 100	–	–	> 100	> 100	–	> 100
COC1=CC(=O)C2C(C1=O)C(c1ccc(OC)c(OC)c1)[C@H]2C (stereo not given in full)	31.9	24	62.4	> 100	> 100	> 100	> 100	35.3	> 100	38.4	> 100	–	> 100	–	–	35.2	–	–	26.1
O=C1NC2C(CCO)CC=C[C@H]2c2cc3c(cc21)OCO3 (stereo not given in full)	> 100	–	> 100	> 100	–	> 100	> 100	> 100	–	> 100	> 100	> 100	> 100	–	–	> 100	> 100	–	> 100
Fc1ccc2c3c([nH]c2c1)CCNC3	> 100	–	> 100	> 100	> 100	> 100	> 100	> 100	> 100	> 100	> 100	> 100	> 100	> 100	> 100	> 100	> 100	–	–
Cc1cn(C2CC(NC(=NCC3OC(n4cnc5c(N)ncnc54)CC3O)NC#N)C(CO)O2)c(=O)[nH]c1=O (stereo not given)	> 100	> 100	> 100	> 100	> 100	> 100	> 100	> 100	> 100	–	> 100	> 100	> 100	> 100	> 100	> 100	> 100	–	> 100
CC/C(SC)=[N+](\C)[O-]	> 100	> 100	23.2	> 100	> 100	> 100	> 100	> 100	> 100	> 100	> 100	> 100	> 100	–	–	> 100	50	–	> 62.3
CCN(CC)CCCCC1CCN(CC(=O)N2c3cc(Cl)ccc3NC(=O)CC2C)CC1 (stereo not given)	> 100	> 100	> 100	–	> 100	> 100	> 100	> 100	> 100	> 100	> 100	> 100	–	–	–	–	> 100	–	–
O=C(Nc1ccc(Cl)cc1)NS(=O)(=O)c1c(-c2ccccc2)oc2ccccc2c1=O	> 100	> 100	> 100	> 100	> 100	> 100	> 100	> 100	> 100	> 100	> 100	> 100	> 100	–	–	> 100	> 100	–	31.2
CC1=C2CN(C(=O)OCC(C)C)CCC2C2=C(C(=O)c3ccccc3C2=O)C1C (stereo not given)	> 10	> 10	> 10	> 10	> 10	> 10	> 10	> 10	–	> 10	> 10	> 10	> 10	> 10	> 10	> 10	> 10	–	–
